How the values were obtained:
[1] = test system: Xbp1 splicing; assay: Xbp1 splicing (ER stress) by RT-PCR / Xbp1s level; type: cell-based, mouse
Method: We investigated another consequence of thapsigargin treatment, ER stress, for its possible association with NMD inhibition. Because thapsigargin-induced NMD inhibition occurred as early as 1 hour post-treatment, we examined cellular stress levels by measuring the splicing activity of X-box binding protein 1 (Xbp1). Xbp1 splicing rapidly responds to ER stress. As a part of the unfolded protein response (UPR) triggered by ER stress, the serine/threonine protein kinase/endoribonuclease inositol-requiring enzyme 1 (IRE1α) oligomerizes and activates its ribonuclease activity through trans-autophosphorylation (Rubio et al., 2011. J Cell Biol 193: 171-184; Samali et al., 2010. Int J Cell Biol 2010: 830307; van Schadewijk et al., 2012. Cell Stress Chaperones 17: 275-279; Hetz C. 2012. Nat Rev Mol Cell Biol 13: 89-102). Activated IRE1α excises a 26-nt intron of Xbp1 mRNA, resulting in a shorter isoform (Xbp1s) that encodes a potent transcriptional activator for the expression of chaperones. RT-PCR with primers flanking the 26-nt intron detected Xbp1 splicing at 1 hour after thapsigargin treatment (FIG. 3A). […] Since IRE1α is targeted by NMD (Karam et al., 2015. EMBO Rep 16: 599-609; Oren et al. 2014. EMBO Mol Med 6: 685-701), the Xbp1 intron excision could have been due to thapsigargin-induced NMD inhibition. […] Nevertheless, feedback between these two pathways may have occurred in the later phase (see below).
(§1) Neuro-2a (N2a) cells were maintained in N2a complete media consisting of L-glutamine-free Dulbecco's modified Eagle's medium (DMEM), 10% FBS and 1× GlutaMAX at 37° C. Thapsigargin (VWR, cat. no. 89161-410), ionomycin (Fisher Scientific, cat. no. AG-CN2-0416-M001) and ouabain octahydrate (Fisher Scientific, cat. no. 80055-364) were dissolved in DMSO and stored at −80° C. […]
Trizol (Life Technologies, cat. no. 15596-018) was directly added to the cells or mouse brain tissues to extract total RNA following the Trizol Reagent standard protocol. […] RNA concentrations were measured using a Nanodrop 2000c (Thermo Fisher). […]

[2] = test system: Bip transcript; assay: Bip transcript levels as reporter of ATF6α activity; type: cell-based, mouse
From the text: Perk knockdown attenuated thapsigargin-induced Xpb1s (FIG. 4E) probably due to the restoration of NMD activity and because NMD inhibits IRE1α to splice Xbp1 (Oren et al. 2014. EMBO Mol Med 6: 685-701; Karam et al., 2015. EMBO Rep 16: 599-609). […] The Xbp1s level in the thapsigargin-treated siPerk cells was still 6 to 8 fold higher than in DMSO-treated cells, indicative of potent IRE1a activity. We also examined Bip transcript levels as a reporter of ATF6α activity (FIG. 4F). […] In summary, in PERK-deficient cells, thapsigargin continued to activate IREα and ATF6α but no longer inhibited NMD.
as §1
Trizol (Life Technologies, cat. no. 15596-018) was directly added to the cells or mouse brain tissues to extract total RNA following the Trizol Reagent standard protocol. […] RNA concentrations were measured using a Nanodrop 2000c (Thermo Fisher). […] Relative expression (fold changes) was calculated using the ΔΔCt method. […]

SMILES | time at which Xbp1 splicing was detected ([1]; 0.2 μM thapsigargin, N2a cells) | concentration at which Xbp1 intron excision occurred ([1]; N2a cells, 5 hours post-treatment) | Bip transcript levels ([2]; thapsigargin treatment, maintained with siPerk) | thapsigargin-induced Xbp1s ([1]; thapsigargin plus GSK2606414) | Bip transcripts ([2]; thapsigargin plus GSK2606414)
C/C=C(/C)C(=O)O[C@H]1C(C)=C2[C@H]([C@@H]1OC(=O)CCCCCCC)[C@@](C)(OC(C)=O)C[C@H](OC(=O)CCC)[C@@]1(O)[C@H]2OC(=O)[C@@]1(C)O [thapsigargin] | 1 h | 0.01 µM | significantly boosted |  | 
Cn1cc(-c2ccc3c(c2)CCN3C(=O)Cc2cccc(C(F)(F)F)c2)c2c(N)ncnc21 [GSK2606414] |  |  |  | attenuating | did not down-regulate
